Results published in patent US5079257A, “Indoloquinone compounds” (priority 1986, dated 1992).
In brackets after ≈: the same amount, converted by molar mass. Like-named read-outs stand apart in the source and are kept apart here.

Columns and labels:
[1] = tested on: R-1 cells (Rhabdomyosarcoma Cells); test: R-1 activity (bioliquid assay), cytotoxicity; assay type: cell-based; settings: for IC50: Rhabdomyosarcoma cell
Source text: The indoloquinones II (formula II) have been tested in respect of their cytotoxic activity against L1210 cells and R-1 cells (Rhabdomyosarcoma Cells) in a bioliquid assay at the department of oncology of the Free University of Amsterdam (Table I). […] (Table II). Eight indoloquinones (E.O. 1, E.O. 2, E.O. 4, E.O. 4A, E.O. 8, E.O. 9, E.O. 33 and E.O. 35) have been tested in a panel of five human tumour lines (TNO Rijswijk; Table III).
For the determination of the R-1 activity, Rhabdomyosarcoma cells were brought into Falcon multiwells (growth area: 9.6 cm^2) (~10^6 cells per dish) containing 3 ml of Dulbecco's medium supplemented with 10% Foeto Calf Serum (FCS). […] Thereupon the drug solution was removed and the cells were covered with fresh medium. After 48 hours the cells were trypsinized and counted on a Sysmex microcell counter (CC110).
(§1) The in vitro L1210 and R-1 activities of the indoloquinones (formula III), were also determined in the bioliquid assays as described above.

L1210 cells = test: L1210 activity (bioliquid assay), cytotoxicity; assay type: cell-based; settings: for IC50: Mus musculus; for ID-50 L1210: 2880 min
Source text: The indoloquinones II (formula II) have been tested in respect of their cytotoxic activity against L1210 cells and R-1 cells (Rhabdomyosarcoma Cells) in a bioliquid assay at the department of oncology of the Free University of Amsterdam (Table I). In addition to this seven compounds (E.O. 1, E.O. 2, E.O. 4, E.O. 7, E.O. 9, E.O. 16 and E.O. 17) have been tested on L1210 activity in a clonogenic assay at TNO, Rijswijk. Further, the lowest active doses of the compounds E.O. 1, E.O. 2, E.O. 4 and E.O. 9 have been determined at TNO Rijswijk, according to the method described by Lamberts et al. [Oncology, 40, 301 (1983)]. (Table II). Eight indoloquinones (E.O. 1, E.O. 2, E.O. 4, E.O. 4A, E.O. 8, E.O. 9, E.O. 33 and E.O. 35) have been tested in a panel of five human tumour lines (TNO Rijswijk; Table III). From the latter group three indoloquinones (E.O. 1, E.O. 4 and E.O. 9) have been selected for a cytotoxicity study, involving five slowly growing human tumour lines (University of Freiburg; Table IV).
For this purpose, L1210 cells were grown, as suspension, in Falcon multi-wells (growth area: 9.6 cm^2) using RPMI supplemented with 15% FCS and 2-mercapto-ethanol (60 μmol) as medium. In this medium, the cells were continuously incubated with the compound to be tested at 37° C. in an atmosphere of 5% CO2 in humidified air for 48 hours. Thereupon they were counted on a Sysmex microcell counter (CC110).
as §1

[2] = Table I, bioliquid assay, read-out: ID-50 R-1
[3] = L1210, Table I, bioliquid assay, 48 hours, read-out: ID-50 L1210
[4] = read-out: ID-50 R-1, Table VIII
[5] = L1210, 48 h, read-out: ID-50 L1210, Table VIII
[6] = Table IA, para-indoloquinone diesters, read-out: ID-50 R-1
[7] = L1210, 48 h, Table IA, para-indoloquinone diesters, read-out: ID-50 L1210

Row | Compound | IC50 [1, 2] [mg/L] | IC50 (L1210 cells; [3]) [mg/L] | further results
1 | COC1=CC(=O)c2c(c(CO)c(/C=C/COC(C)=O)n2C)C1=O [E.O. 1A, 3-Hydroxymethyl-5-methoxy-1-methyl-2-[1H-indole-4,7-dione]prop-β-en-α-yl acetate] | 3.2 | 2.8 | 
2 | COC1=CC(=O)c2c(c(COC(C)=O)c(/C=C/CO)n2C)C1=O [E.O. 1B, 3-Acetoxymethyl-5-methoxy-1-methyl-2-[1H-indole-4,7-dione]prop-β-en-α-ol] | 0.05 (≈ 0.157 µM) | 0.9 (≈ 2.82 µM) | 
3 | COC1=CC(=O)c2c(c(COC(N)=O)c(/C=C/COC(N)=O)n2C)C1=O [E.O. 3, 3-Carbamoyloxymethyl-5-methoxy-1-methyl-2-[1H-indole-4,7-dione]prop-β-en-α-yl carbamate] | > 10 | 8 (≈ 22 µM) | 
4 | CC(=O)OC/C=C/c1c(COC(C)=O)c2c(n1C)C(=O)C=C(NCCO)C2=O [E.O. 5, 3-Acetoxymethyl-5-(2-hydroxyethyl-1-amino)-1-methyl-2-[1H-indole-4,7-dione]prop-β-en-αyl acetate] | > 10 | > 10 | IC50 ([1]; Table VI, read-out: ID-50 R-1): > 10 mg/L; ID-50 L1210 (L1210 cells; Table VI): > 10 µg/mL
5 | COCc1c2c(n(C)c1/C=C/COC(=O)NCCCl)C(=O)C=C(OC)C2=O [E.O. 10, 5-Methoxy-3-methoxymethyl-1-methyl-2-[1H-indole-4,7-dione]prop-β-en-α-yl N-[2-chloro-1-ethyl]carbamate] | > 10 | > 10 | ID-50 R-1 ([1]; Table VII): > 10 µg/mL; ID-50 L1210 (L1210 cells; Table VII): > 10 µg/mL
6 | COC1=CC(=O)c2c(c(COC(=O)NCCCl)c(/C=C/COC(=O)NCCCl)n2C)C1=O [E.O. 13, 3-(N-chloroethylcarbamoyloxymethyl)-5-methoxy-1-methyl-2-[1H-indole-4,74,7-dione]prop-β-en-α-yl N-chloroethyl carbamate] | 1.1 (≈ 2.25 µM) | 10 (≈ 20.5 µM) | 
7 | Cn1c(/C=C/CO)c(CO)c2c1C(=O)C=C(Nc1ccccc1)C2=O [E.O. 15, 3-Hydroxymethyl-5-phenylamino-1-methyl-2-[1H-indole-4,7-dione]prop-β-en-α-ol] |  | 0.7 (≈ 2.07 µM) | 
8 | COC1=C(C)C(=O)c2c(c(CO)c(/C=C/CO)n2C)C1=O [E.O. 18, 1,6-Dimethyl-5-hydroxymethyl-5-methoxy-2-[1H-indole-4,7-dione]prop-β-en-α-ol] | 2.2 (≈ 7.55 µM) | 2.4 (≈ 8.24 µM) | 
9 | CC1=C(N2CC2)C(=O)c2c(CO)c(/C=C/CO)n(C)c2C1=O [E.O. 19, 5-Aziridino-1,6-dimethyl-3-hydroxymethyl-2-[1H-indole-4,7-dione]prop-β-en-α-ol] |  |  | IC50 ([1]; read-out: ID-50 R-1, Table I, bioliquid assay): 0.1 mg/L (≈ 0.331 µM); IC50 [1, 4]: 0.12 mg/L (≈ 0.397 µM); IC50 (L1210 cells; [5]): 2 mg/L (≈ 6.62 µM)
10 | COC(=O)/C=C/c1c(C(=O)OC)c2c(n1C)C(=O)C(C)=C(OC)C2=O [E.O. 32, Methyl 1,6-dimethyl-5-methoxy-3-methoxycarbonyl-2-[1H-indole-4,7-dione]acrylate] |  |  | IC50 [1, 6]: > 10 mg/L; IC50 (L1210 cells; [7]): 3.5 mg/L (≈ 10.1 µM)
11 | COC1=CC(=O)c2c(c(COC(=O)c3ccccc3)c(/C=C/COC(=O)c3ccccc3)n2C)C1=O [E.O. 36, 3-Benzoxymethyl-5-methoxy-1-methyl-2-[1H-indole-4,7-dione]prop-β-en-α-yl benzoate] | 2.6 (≈ 5.36 µM) | 0.7 (≈ 1.44 µM) | 
12 | CCCCNC(=O)OC/C=C/c1c(COC(=O)NCCCC)c2c(n1C)C(=O)C=C(OC)C2=O [E.O. 37, 3-[N-butylcarbamoyloxymethyl]-5-methoxy-1-methyl-2-[1H-indole-4,7-dione]prop-β-en-α-yl N-butylcarbamate] | 6.5 (≈ 13.7 µM) | > 10 | ID-50 L1210 (L1210 cells; Table VII): > 10 µg/mL
13 | COC1=CC(=O)c2c(c(COC(=O)Nc3ccccc3)c(/C=C/COC(=O)Nc3ccccc3)n2C)C1=O [E.O. 38, 5-Methoxy-1-methyl-3-[N-phenylcarbamoyloxymethyl]-2-[1H-indole-4,7-dione]prop-β-en-α-yl N-phenylcarbamate] | 8.5 (≈ 16.5 µM) | > 10 | ID-50 L1210 (L1210 cells; Table VII): > 10 µg/mL
14 | COC1=CC(=O)c2c(c(CNc3ccccc3)c(/C=C/COC(C)=O)n2C)C1=O [E.O. 39, 5-Methoxy-1-methyl-3-(N-phenylaminomethyl)-2-[1H-indole-4,7-dione]prop-β-en-α-yl acetate] | 1 | 10 | R-1 activity [1]: rather high R-1 activity
15 | COC1=CC(=O)c2c(c(C)c(/C=C/COC(C)=O)n2C)C1=O [E.O. 41, 5-Methoxy-1,3-dimethyl-2-[1H-indole-4,7-dione]prop-β-en-α-yl acetate] | > 10 | > 10 | IC50 ([1]; Table VII, read-out: ID-50 R-1): > 10 mg/L; ID-50 L1210 (L1210 cells; Table VII): > 10 µg/mL
16 | CC(=O)OC/C=C/c1c(COC(C)=O)c2c(n1C)C(=O)C=C(NCCN(C)C)C2=O [E.O. 47, 3-Acetoxymethyl-5-[2-(N,N-dimethylamino)ethyl-1-amino]-1-methyl-2-[1H-indole-4,7-dione]prop-β-en-α-yl acetate] | 4.4 | > 10 | R-1 activity [1]: rather high activities; ID-50 L1210 (L1210 cells; Table VI): > 10 µg/mL
17 | CC(=O)OCc1c2c(n(C)c1/C=C/CO)C(=O)C=C(NCCN(C)C)C2=O [E.O. 48, 3-Acetoxymethyl-5-[2-(N,N-dimethylamino)ethyl-1-amino]-1-methyl-2-[1H-indole-4,7-dione]prop-β-en-α-ol] | > 10 | > 10 | IC50 ([1]; Table VI, read-out: ID-50 R-1): > 10 mg/L; ID-50 L1210 (L1210 cells; Table VI): > 10 µg/mL
18 | Cn1c(/C=C/CO)c(CO)c2c1C(=O)C=C(NCCc1ccccn1)C2=O [E.O. 51, 3-Hydroxymethyl-1-methyl-5-[2-pyridylethyl-1-amino]-2-[1H-indole-4,7-dione]prop-β-en-α-ol] | 4.5 (≈ 12.2 µM) | > 10 | ID-50 L1210 (L1210 cells; Table VI): > 10 µg/mL
19 | CC(=O)OC/C=C/c1c(COC(C)=O)c2c(n1C)C(=O)C=C(NCCc1ccccn1)C2=O [E.O. 52, 3-Acetoxymethyl-1-methyl-5-[2-pyridylethyl-1-amino]-2-[1H-indole-4,7-dione]prop-β-en-α-yl acetate] | 3.3 | > 10 | R-1 activity [1]: rather high activities; ID-50 L1210 (L1210 cells; Table VI): > 10 µg/mL
20 | CC(=O)OC/C=C/c1c(COC(C)=O)c2c(n1C)C(=O)C=C(N1CC1C)C2=O (stereo not drawn) [E.O. 53, 3-Acetoxymethyl-1-methyl-5-propyleneamino-2-[1H-indole-4,7-dione]prop-β-en-α-yl acetate] |  |  | IC50 [1, 4]: 1.4 mg/L; IC50 (L1210 cells; [5]): 3.4 mg/L
21 | CCNC1=CC(=O)c2c(c(CO)c(/C=C/CO)n2C)C1=O [E.O. 56, 5-Ethylamino-3-hydroxymethyl-1-methyl-2-[1H-indole-4,7-dione]prop-β-en-α-ol] | > 10 | 5.1 (≈ 17.6 µM) | IC50 ([1]; Table VI, read-out: ID-50 R-1): > 10 mg/L
22 | CCNC1=CC(=O)c2c(c(C(=O)OC)c(/C=C/C(=O)OC)n2C)C1=O [E.O. 57, Methyl 5-ethylamino-3-methoxycarbonyl-1-methyl-2-[1H-indole-4,7-dione]acrylate] |  |  | IC50 [1, 6]: 3.2 mg/L (≈ 9.24 µM); IC50 (L1210 cells; [7]): 1.4 mg/L (≈ 4.04 µM)
23 | CCNC1=CC(=O)c2c(c(COC(C)=O)c(/C=C/COC(C)=O)n2C)C1=O [E.O. 58, 3-Acetoxymethyl-5-ethylamino-1-methyl-2-[1H-indole-4,7-dione]prop-β-en-α-yl acetate] | > 10 | > 10 | IC50 ([1]; Table VI, read-out: ID-50 R-1): > 10 mg/L; ID-50 L1210 (L1210 cells; Table VI): > 10 µg/mL
24 | CCNC1=CC(=O)c2c(c(COC(C)=O)c(/C=C/CO)n2C)C1=O [E.O. 59, 3-Acetoxymethyl-5-ethylamino-1-methyl-2-[1H-indole-4,7-dione]prop-β-en-α-ol] | > 10 | > 10 | 
